# From US7855073B2, “Cells containing a nanopatch sensor in their membrane” (Ben-Gurion University of the Negev Research and Development …, priority 2003, dated 2010)
# How the values were obtained:
# U937 cells = assay: Detection of membrane perturbations by fluorescence microscopy, nanopatch-containing U937 cells; assay type: cell-based, human
# Experimental: U937 cells were grown and prepared as described in section 1.1 of Example 1, hereinabove. The precursors of the Lipid/PDA constructs (i.e. a mixture of 10,12-tricosadiynoic acid, PE and PG at a molar ratio of 8:1:1) were prepared and introduced into the cells in accordance with the methods described in sections 1.2 and 1.3 of Example 1.
# Separate aliquots of cells containing the lipid/PDA constructs were then subjected to the membrane-perturbing treatments described below.
# Transmission differential interference contrast (DIC) and fluorescence images of the cells were acquired on a laser scanning confocal microscope (Olympus IX70) with an PlApo 60× objective using oil (NA 1.4). Excitation was at 488 nm using argon laser source. Emitted light was collected through a LP 560 nm filter.
# Erythrocyte "ghosts" = assay: Detection of membrane perturbations, nanopatch-containing erythrocyte ghosts; assay type: cell-based; conditions: ghosts labeled with DMPC/PDA liposomes; FIG. 11
# Experimental: Erythrocyte “ghosts” (i.e. emptied cells) were labeled with DMPC/PDA liposomes, following which the nanopatch-containing cells were treated with the membrane active compound melittin.
# cultured neuronal cells = assay: Detection of membrane perturbations, nanopatch-containing neuron cells; assay type: cell-based, rat; conditions: 50 mM in medium; FIG. 7
# Experimental: Cell cultures were prepared from the Hippocampi of one-day-old rat pups as follows. Tissue was treated for 30 min at 37° C. with 0.25% trypsin (type XI; Sigma), and then gently triturated and the dissociated cells were plated at a concentration of 2×10^5/ml onto poly-D-lysine ([…]; Sigma) and laminin ([…]; Collaborative Research)—coated glass coverslips. Cells were plated in Eagle's minimal essential medium (MEM) containing 10% heat-inactivated fetal bovine serum (HyClone), 2 mM glutamine, and 0.76% glucose. On the following day, the medium was replaced with fresh SF1C medium [Rayport, D. et al. (1992) J. Neurosci. 12, 4264-4280], including B-27 supplements (GIBCO). The cells were grown for up to 12 days in a humid incubator containing 5% CO2/95% air at 37° C. prior to use.
# Cells were incubated with DMPE/DMPG/PDA-1:1:6 (mole ratio) vesicles in TG1 buffer (119 mM NaCl, 5 mM KCl, 30 mM Glucose, 32 mM Sucrose, 20 mM Hepes, pH=7.3) for 1 hour at room temperature. Following the fusion, vesicles were polymerized by UV irradiation at 254 nm for 10 seconds and the unbound vesicles were washed 3 times with TG1 buffer.
# Fluorescent images of the cells were acquired using a Zeiss 200M microscope (Germany) fitted with a CY3 570-650 nm emission range filter (Chroma Technology Corp., Rockingham, Vt.) and CCD cooled camera (PCO). […]
# CHO cells = assay: Detection of membrane perturbations, nanopatch-containing CHO cells; assay type: cell-based; conditions: FIG. 10
# Experimental: PDA nanopatch-containing CHO cells were prepared as described in Example 1, hereinabove, and treated with propranolol, a membrane-active pharmaceutical compound.
smiles,measurement,setting,value
CC[C@H](C)[C@H](NC(=O)CN)C(=O)NCC(=O)N[C@@H](C)C(=O)N[C@H](C(=O)N[C@@H](CC(C)C)C(=O)N[C@@H](CCCCN)C(=O)N[C@H](C(=O)N[C@@H](CC(C)C)C(=O)N[C@H](C(=O)N[C@H](C(=O)NCC(=O)N[C@@H](CC(C)C)C(=O)N1CCC[C@H]1C(=O)N[C@@H](C)C(=O)N[C@@H](CC(C)C)C(=O)N[C@H](C(=O)N[C@@H](CO)C(=O)N[C@@H](Cc1c[nH]c2ccccc12)C(=O)N[C@H](C(=O)N[C@@H](CCCCN)C(=O)N[C@@H](CCCNC(=N)N)C(=O)N[C@@H](CCCCN)C(=O)N[C@@H](CCCNC(=N)N)C(=O)N[C@@H](CCC(N)=O)C(=O)N[C@@H](CCC(N)=O)C(N)=O)[C@@H](C)CC)[C@@H](C)CC)[C@@H](C)O)[C@@H](C)O)C(C)C)C(C)C [melittin],Fluorescent emission of the lipid/PDA constructs (membrane perturbation),"U937 cells; 5 μM and 50 μM, FIG. 8 panels C, D",results in the characteristic fluorescent emission
same,Dependence of fluorescent emission on dose,"U937 cells; 5 μM versus 50 μM, FIG. 8 panels C, D",dose-dependent
same,Fluorescence from transformed red PDA,"Erythrocyte ""ghosts""",fluorescence spots
CCN(CC)CC(=O)Nc1c(C)cccc1C [lidocaine],Fluorescent emission of the lipid/PDA constructs (membrane perturbation),"U937 cells; 5 μM, 25° C., 5 to 15 minutes, FIG. 5",characteristic fluorescent emission
same,Fluorescent emission of the lipid/PDA constructs (membrane perturbation),"U937 cells; 1 mM, FIG. 8 panel B",characteristic fluorescent emission associated with perturbation of the PDA construct is readily observed
[Ca+2] [calcium ions],Fluorescent emission from the red phase of the polydiacetylene polymer,cultured neuronal cells,white fluorescent light emitted by the cells
OC[C@H]1O[C@@](CO)(O[C@H]2O[C@H](CO)[C@@H](O)[C@H](O)[C@H]2O)[C@@H](O)[C@@H]1O [sucrose],Fluorescent emission of the lipid/PDA constructs (membrane perturbation),"U937 cells; 1 M, 25° C., 5 to 15 minutes, FIG. 3",fluorescent emission
CC(C)NCC(O)COc1cccc2ccccc12 (centres unmarked) [propranolol],Fluorescent emission associated with perturbation of the PDA-lipid constructs,CHO cells,characteristic fluorescent emission associated with perturbation of the PDA-lipid constructs embedded in the cell membrane is readily observed
